According to ChEMBL document CHEMBL4342471, “Discovery of Thieno[2,3-d]pyrimidine-Based Hydroxamic Acid Derivatives as Bromodomain-Containing Protein 4/Histone Deacetylase Dual Inhibitors Induce Autophagic Cell Death in Colorectal Carcinoma Cells” (J Med Chem, 2020):

Experiments:
[1] = target: Bromodomain-containing protein 4 (Homo sapiens, UniProt O60885); assay: Inhibition of GST-tagged BRD4 bromodomain (unknown origin) using biotinylated histone H4KAc peptide (1 to 21 residues) as substrate by HTRF assay
[2] = system: HCT-116; assay: Antiproliferative activity against human HCT116 cells assessed as reduction in cell viability measured after 24 to 48 hrs by MTT assay; type: functional, cell-based
[3] = system: SW-620; assay: Antiproliferative activity against human SW620 cells assessed as reduction in cell viability measured after 24 to 48 hrs by MTT assay; type: functional, cell-based
[4] = system: DLD-1; assay: Antiproliferative activity against human DLD1 cells assessed as reduction in cell viability measured after 24 to 48 hrs by MTT assay; type: functional, cell-based
[5] = target: T1, Histone deacetylase 7 (Homo sapiens, UniProt Q8WUI4); assay: Inhibition of HDAC7 (unknown origin) using biotinylated histone H3 KAc peptide (1 to 21 residues) as substrate by HTRF assay
T1 sequence (Q8WUI4 whole entry): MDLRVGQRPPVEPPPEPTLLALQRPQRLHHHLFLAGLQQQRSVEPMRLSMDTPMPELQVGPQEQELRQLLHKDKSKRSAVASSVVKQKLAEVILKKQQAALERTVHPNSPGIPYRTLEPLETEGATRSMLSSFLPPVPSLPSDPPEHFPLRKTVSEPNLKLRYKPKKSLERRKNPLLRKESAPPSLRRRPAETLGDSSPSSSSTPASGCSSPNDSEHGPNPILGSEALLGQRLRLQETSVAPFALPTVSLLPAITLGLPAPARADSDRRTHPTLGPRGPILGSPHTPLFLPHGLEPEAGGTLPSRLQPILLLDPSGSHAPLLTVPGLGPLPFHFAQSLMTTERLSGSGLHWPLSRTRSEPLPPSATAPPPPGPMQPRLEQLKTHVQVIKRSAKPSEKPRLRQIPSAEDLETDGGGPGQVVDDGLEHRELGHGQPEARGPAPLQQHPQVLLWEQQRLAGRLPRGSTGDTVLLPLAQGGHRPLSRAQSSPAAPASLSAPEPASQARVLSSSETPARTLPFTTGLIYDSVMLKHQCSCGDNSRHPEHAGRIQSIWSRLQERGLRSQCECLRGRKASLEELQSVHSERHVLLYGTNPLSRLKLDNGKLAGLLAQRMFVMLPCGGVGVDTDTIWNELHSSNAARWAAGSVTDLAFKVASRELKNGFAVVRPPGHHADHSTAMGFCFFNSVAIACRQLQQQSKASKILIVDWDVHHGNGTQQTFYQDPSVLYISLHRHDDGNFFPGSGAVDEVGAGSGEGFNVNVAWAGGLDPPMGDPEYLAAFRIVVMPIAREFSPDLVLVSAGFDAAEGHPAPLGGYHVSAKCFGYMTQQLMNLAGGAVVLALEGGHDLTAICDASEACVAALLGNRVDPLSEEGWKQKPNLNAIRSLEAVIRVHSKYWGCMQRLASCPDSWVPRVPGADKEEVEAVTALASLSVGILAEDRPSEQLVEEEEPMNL

[6] = target: T2, Protein deacetylase HDAC6 (Homo sapiens, UniProt Q9UBN7); assay: Inhibition of HDAC6 (unknown origin) using biotinylated histone H3 KAc peptide (1 to 21 residues) as substrate by HTRF assay
T2 sequence (Q9UBN7 whole entry): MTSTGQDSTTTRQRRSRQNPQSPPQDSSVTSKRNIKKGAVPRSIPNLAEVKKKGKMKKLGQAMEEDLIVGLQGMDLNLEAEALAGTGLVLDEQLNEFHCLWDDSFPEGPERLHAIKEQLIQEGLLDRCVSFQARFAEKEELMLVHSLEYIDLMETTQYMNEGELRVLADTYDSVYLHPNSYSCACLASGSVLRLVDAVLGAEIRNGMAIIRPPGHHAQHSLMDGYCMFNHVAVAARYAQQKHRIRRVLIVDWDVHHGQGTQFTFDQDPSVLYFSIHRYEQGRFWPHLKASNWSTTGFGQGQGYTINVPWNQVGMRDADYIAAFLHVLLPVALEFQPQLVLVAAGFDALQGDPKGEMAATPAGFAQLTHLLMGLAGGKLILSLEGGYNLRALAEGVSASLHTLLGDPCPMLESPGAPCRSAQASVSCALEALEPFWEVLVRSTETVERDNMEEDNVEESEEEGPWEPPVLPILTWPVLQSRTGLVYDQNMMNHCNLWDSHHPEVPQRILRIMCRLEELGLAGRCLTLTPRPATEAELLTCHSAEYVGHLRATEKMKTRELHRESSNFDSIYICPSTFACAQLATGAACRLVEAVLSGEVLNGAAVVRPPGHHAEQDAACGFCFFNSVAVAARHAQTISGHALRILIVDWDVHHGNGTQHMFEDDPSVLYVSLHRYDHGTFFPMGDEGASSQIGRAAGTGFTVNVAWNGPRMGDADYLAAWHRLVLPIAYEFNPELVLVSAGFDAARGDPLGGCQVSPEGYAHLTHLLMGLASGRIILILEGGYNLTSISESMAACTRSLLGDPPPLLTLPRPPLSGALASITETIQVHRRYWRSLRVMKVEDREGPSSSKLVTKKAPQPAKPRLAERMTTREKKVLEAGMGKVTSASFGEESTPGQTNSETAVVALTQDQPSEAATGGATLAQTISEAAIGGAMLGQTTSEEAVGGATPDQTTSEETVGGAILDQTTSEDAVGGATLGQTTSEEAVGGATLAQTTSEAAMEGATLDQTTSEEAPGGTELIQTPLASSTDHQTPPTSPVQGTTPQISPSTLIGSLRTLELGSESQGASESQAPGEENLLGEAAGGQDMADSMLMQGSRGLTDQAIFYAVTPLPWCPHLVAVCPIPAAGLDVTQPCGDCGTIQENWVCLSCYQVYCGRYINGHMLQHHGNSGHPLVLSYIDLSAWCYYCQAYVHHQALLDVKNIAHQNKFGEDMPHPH

[7] = target: Histone deacetylase 2 (Homo sapiens, UniProt Q92769)
Sequence of Histone deacetylase 2 (Q92769 whole entry): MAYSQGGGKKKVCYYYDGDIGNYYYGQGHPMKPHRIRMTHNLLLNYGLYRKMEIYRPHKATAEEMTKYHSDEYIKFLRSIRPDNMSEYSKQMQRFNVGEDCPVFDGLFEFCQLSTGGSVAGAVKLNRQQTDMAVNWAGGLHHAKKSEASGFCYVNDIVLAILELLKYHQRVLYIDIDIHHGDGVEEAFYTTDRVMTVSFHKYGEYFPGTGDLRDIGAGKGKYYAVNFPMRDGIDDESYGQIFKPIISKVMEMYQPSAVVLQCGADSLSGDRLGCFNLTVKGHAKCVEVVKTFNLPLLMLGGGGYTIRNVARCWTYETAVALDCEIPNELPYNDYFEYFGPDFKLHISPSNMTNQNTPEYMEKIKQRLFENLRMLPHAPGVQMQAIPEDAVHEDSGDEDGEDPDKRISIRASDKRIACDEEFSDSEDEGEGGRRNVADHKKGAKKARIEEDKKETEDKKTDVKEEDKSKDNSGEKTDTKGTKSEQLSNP

SMILES	IC50 [1] [µM]	IC50 [2] [µM]	IC50 [3] [µM]	IC50 [4] [µM]	IC50 [5] [µM]	IC50 [6] [µM]	IC50 [7] [µM]
CCN1CCc2c(sc3nc(-c4cc(C)cc(C)c4)[nH]c(=O)c23)C1	> 10	> 10	–	–	–	–	–
CCN1CCc2c(sc3nc(-c4cc(C)c(O)c(C)c4)[nH]c(=O)c23)C1	5.6	8.91	–	–	–	–	–
CN1CCc2c(sc3nc(-c4ccc(O)cc4)[nH]c(=O)c23)C1	6.31	8.68	–	–	–	–	–
COC(=O)CCCN1CCc2c(sc3nc(-c4c(C)noc4C)[nH]c(=O)c23)C1	5.93	12.7	–	–	–	–	–
Cc1noc(C)c1-c1nc2sc3c(c2c(=O)[nH]1)CCN(C)C3	2.41	9.77	–	–	–	–	–
COC(=O)CCCCCN1CCc2c(sc3nc(-c4c(C)noc4C)[nH]c(=O)c23)C1	3.62	17	–	–	–	–	–
O=c1[nH]c(-c2ccccc2)nc2sc3c(c12)CCN(Cc1ccccc1)C3	> 10	> 10	–	–	–	–	–
Cc1cc(-c2nc3sc4c(c3c(=O)[nH]2)CCN(C)C4)cc(C)c1OCc1cccc(C(=O)Nc2ccccc2N)c1	3.48	4.53	> 10	> 10	> 10	> 10	0.86
Cc1cc(-c2nc3sc4c(c3c(=O)[nH]2)CCN(C)C4)cc(C)c1OCc1cccc(C(=O)NO)c1	1.93	5.49	7.83	9.16	> 10	0.78	0.251
Cc1cc(C)cc(-c2nc3sc4c(c3c(=O)[nH]2)CCC4)c1	> 10	> 10	–	–	–	–	–
Cc1noc(C)c1-c1nc2sc3c(c2c(=O)[nH]1)CCN(CCCCCC(=O)Nc1ccccc1N)C3	> 10	15.2	11.1	14.8	> 10	0.196	0.112
Cc1cc(C)cc(-c2nc3sc4c(c3c(=O)[nH]2)CCN(C)C4)c1	> 10	> 10	–	–	–	–	–
O=c1[nH]c(-c2ccc(O)cc2)nc2sc3c(c12)CCCC3	5.77	9.73	–	–	–	–	–
Cc1cc(-c2nc3sc4c(c3c(=O)[nH]2)CCN(C)C4)cc(C)c1OCc1ccc(C(=O)NO)cc1	1.77	1.07	3.87	6.24	> 10	0.188	0.105
Cc1cc(-c2nc3sc4c(c3c(=O)[nH]2)CCN(C)C4)cc(C)c1OCCOCc1ccc(/C=C/C(=O)NO)cc1	0.98	0.69	3.85	3.04	> 10	0.159	0.085
Cc1noc(C)c1-c1nc2sc3c(c2c(=O)[nH]1)CCN(CCCC(=O)NO)C3	> 10	18	9.86	19.6	> 10	0.464	0.282
O=c1[nH]c(-c2ccc(O)cc2)nc2sc3c(c12)CCN(Cc1ccccc1)C3	> 10	> 10	–	–	–	–	–
COC(=O)CN1CCc2c(sc3nc(-c4c(C)noc4C)[nH]c(=O)c23)C1	6.68	16.2	–	–	–	–	–

SMILES	IC50 [1] [µM]	IC50 [2] [µM]	IC50 [3] [µM]	IC50 [4] [µM]	IC50 [5] [µM]	IC50 [6] [µM]	IC50 [7] [µM]
Cc1cc(-c2nc3sc4c(c3c(=O)[nH]2)CCN(C)C4)cc(C)c1OCc1ccc(C(=O)Nc2ccccc2N)cc1	2.55	4.32	5.49	> 10	> 10	> 10	0.14
Cc1cc(-c2nc3sc4c(c3c(=O)[nH]2)CCN(C)C4)cc(C)c1OCCCCCC(=O)Nc1ccccc1N	2.19	6.93	9.87	> 10	> 10	> 10	0.17
Cc1noc(C)c1-c1nc2sc3c(c2c(=O)[nH]1)CCN(CC(=O)Nc1ccccc1N)C3	> 10	28.3	15.2	15.2	> 10	0.391	0.352
Oc1nc(-c2ccccc2)nc2sc3c(c12)CCCC3	> 10	> 10	–	–	–	–	–
Cc1cc(C)cc(-c2nc3sc4c(c3c(=O)[nH]2)CCCC4)c1	> 10	> 10	–	–	–	–	–
Cc1cc(-c2nc3sc4c(c3c(=O)[nH]2)CCC4)cc(C)c1O	2.64	4.85	–	–	–	–	–
CN1CCc2c(sc3nc(-c4ccccc4)[nH]c(=O)c23)C1	> 10	> 10	–	–	–	–	–
Cc1cc(-c2nc3sc4c(c3c(=O)[nH]2)CCN(Cc2ccccc2)C4)cc(C)c1O	> 10	> 10	–	–	–	–	–
Cc1noc(C)c1-c1nc2sc3c(c2c(=O)[nH]1)CCN(CCCCCC(=O)NO)C3	> 10	15.3	8.47	16.8	> 10	0.156	0.135
CCN1CCc2c(sc3nc(-c4ccc(O)cc4)[nH]c(=O)c23)C1	> 10	> 10	–	–	–	–	–
Cc1cc(C)cc(-c2nc3sc4c(c3c(=O)[nH]2)CCN(Cc2ccccc2)C4)c1	> 10	> 10	–	–	–	–	–
Cc1cc(-c2nc3sc4c(c3c(=O)[nH]2)CCN(CCCCCC(=O)NO)C4)cc(C)c1O	> 10	> 10	15.8	> 10	> 10	0.129	0.136
Cc1cc(-c2nc3sc4c(c3c(=O)[nH]2)CCN(C)C4)cc(C)c1OCCCC(=O)NO	1.17	2.08	3.83	9.72	> 10	0.25	0.16
Cc1cc(-c2nc3sc4c(c3c(=O)[nH]2)CCCC4)cc(C)c1O	1.81	5.41	–	–	–	–	–
Cc1noc(C)c1-c1nc2sc3c(c2c(=O)[nH]1)CCN(CC(=O)NO)C3	> 10	22.8	19.6	22.6	> 10	0.455	0.489
O=c1[nH]c(-c2ccccc2)nc2sc3c(c12)CCC3	> 10	> 10	–	–	–	–	–
O=c1[nH]c(-c2ccc(O)cc2)nc2sc3c(c12)CCC3	9.28	> 10	–	–	–	–	–
CCN1CCc2c(sc3nc(-c4ccccc4)[nH]c(=O)c23)C1	> 10	> 10	–	–	–	–	–
